Results on 17 compounds are retold here after PubChem BioAssay (NCI).

Assay in all cases: inhibition of tumour cell growth, NCI panel, 48 h
Assay [1] relates to MDA-MB-231 breast.
The test system of assay [2] is SF-268 CNS.
Assay [3] concerns SF-295 CNS.
Assay [4] concerns DU-145 prostate.
Assay [5] has as its system A549 NSCLC.
The subject of assay [6] is U251 CNS.
The test system of assay [7] is OVCAR-4 ovarian.
Assay [8] concerns RPMI-8226 leukemia.
Assay [9] deals with SNB-19 CNS.
Assay [10] concerns MALME-3M melanoma.

“And” between values parts separate entries of the source, which are not always exact repeats. Identical values can stand only once.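 Step 1: Grow cells in 96-well plates. Step 2: Expose to compound for 48 hours at 5 concentrations. Step 3: Interpolate endpoints linearly; if unreached, use highest concentration. TGI marks complete inhibition of growth.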

Regarding `Oc1ccc(Cl)cc1C1=NC(/N=C\c2ccccc2)=NC(c2ccccc2)C1` (stereo not given), the TGI in assay [1], in assay [2], in assay [3], in assay [4], in assay [5] and in assay [6] was more than 100 µM each time.

As to `O=C(CSc1nc2ccccc2c(=O)n1-c1ccccc1)N=Nc1c(O)[nH]c2ccc(F)cc12`, the TGI in assay [7] was determined as 4.34 µM; in assay [1] it was 4.79 µM; in assay [2], 4.93 µM; in assay [4], 4.17 µM; in [5] it was 21.6 µM; in assay [8], 4.65 µM. Besides, the TGI in assay [6] was more than 100 µM; in assay [9], 67.5 µM.

Regarding `O=c1oc2ccccc2c(O)c1C(C/C(CCN1CCCC1)=N\Nc1ccccc1)c1ccccc1` (stereo not given), the TGI in assay [10] is more than 100 µM; in assay [7], more than 100 µM; in assay [2] it was more than 100 µM; in [3], more than 100 µM; in assay [5], more than 100 µM; in assay [8], 77.7 µM. Further, the TGI in assay [6] and in assay [9] was more than 100 µM in each case.

Regarding `COC(=O)C(NC(=O)c1ccccc1)C(c1ccc(Cl)cc1)P(=O)(OC)OC` (stereo not given), the TGI in [7], in assay [2], in assay [3], in assay [5], in assay [8] and in [6] was more than 100 µM in each case. In [9], this compound displayed a TGI of more than 100 µM.

On to `O=c1c2ccccc2nc(N/N=C/c2ccccc2O)n1-c1ccccc1`, for which the TGI is more than 100 µM in assay [10]; 43.2 µM in assay [7]; more than 100 µM in assay [1]; more than 100 µM in [2]; more than 100 µM in assay [3]; more than 100 µM in [4]. Also, the TGI in assay [5], in assay [6] and in assay [9] was more than 100 µM each time.

For `COc1ccc(N2C(=O)C3c4[nH]c5ccccc5c4C4CCCCC4C3C2=O)cc1` (stereo not given), the TGI in assay [10] was 25.8 µM; in assay [7], 23.6 µM; in [2], 26.4 µM; in assay [3], 36 µM; in [5] it was 51.9 µM; in [8], more than 100 µM. The figures for the TGI in assay [6] and in [9] were 38.6 µM and more than 100 µM, respectively.

For `CCCCNC(=O)/N=C/c1c(O)c2ccccc2oc1=O`, the TGI in assay [7], in [2], in assay [5], in assay [8] and in assay [9] was more than 100 µM each time.

Take `COc1ccc(C[C@H](N)C(=O)N2C[C@@H](CO)C[C@@H](n3ccc(=O)[nH]c3=O)C2)cc1`: the TGI in assay [10], in assay [7], in assay [2], in [5], in assay [8] and in [6] was more than 100 µM throughout. Also, the TGI in [9] was more than 100 µM.

As for `COc1ccc(Sc2ccccc2N)cc1`, the TGI in [10], in [7], in assay [2], in assay [3], in [5] and in assay [8] was more than 100 µM each time. Besides, the TGI in assay [6] is 49.8 µM; in [9], more than 100 µM.

Consider `C/C=C(/C)C(=O)O[C@H]1[C@H](O)CC(c2ccc3c(c2O)C(O)=C2C(=O)C4(OC)C(O)=C(C(N)=O)C(=O)[C@H](CC(=O)c5ccccc5O)C4CC2[C@@]3(C)OC)O[C@@H]1C` (stereo not given in full), for which the TGI in assay [10] was 2.87 µM; in assay [7], 17 µM; in [1], 1.35 µM; in assay [2], 2.91 µM; in assay [3], 0.193 µM and 0.128 µM; in [5] it was 4.6 µM and 1.52 µM. Besides, the TGI in [8] is 0.557 µM and 1.76 µM; in [6] it was 0.148 µM and 0.117 µM; in assay [9] it was 1.68 µM and 1.06 µM.

Consider `NC(CSSCC(N)Cc1ccccc1)Cc1ccccc1` (stereo not given), for which the TGI in assay [10], in assay [7], in [2], in assay [3], in [5] and in assay [8] was more than 100 µM each time. Also, the TGI in assay [6] and in assay [9] was more than 100 µM each time.

Turning to `CCOC(=O)c1c(-c2cccc3ccccc23)c(C#N)c(=S)n(C2OC(COC(C)=O)C(OC(C)=O)C(OC(C)=O)C2OC(C)=O)c1C` (stereo not given), the TGI in [10], in assay [7], in assay [1], in assay [2], in assay [3] and in [4] was more than 100 µM throughout. Also, the TGI in [5], in assay [6] and in assay [9] was more than 100 µM in each case.

Regarding `COc1ccc2c(c1)OC[C@@H]1c3cc(O)c(OCc4ccccc4)cc3O[C@H]21`, the TGI in assay [10] was 85.7 µM; in assay [7], 60.3 µM; in assay [2], more than 100 µM; in [3], more than 100 µM; in assay [5], 97.1 µM; in assay [8], 49 µM. For the same compound, the TGI in assay [6] was 68.4 µM; in assay [9], more than 100 µM.

With `C=CCn1c(-c2ccc([N+](=O)[O-])cc2)csc1=N`, the TGI in [10], in [7], in [1], in assay [2], in assay [3] and in assay [4] was more than 100 µM in each case. The TGI in [5], in [6] and in assay [9] was more than 100 µM in each case.

As for `O=C(N/N=C/c1cc(Br)cc(Br)c1[O-])c1ccccc1O.O=C(N/N=C/c1cc(Br)cc(Br)c1[O-])c1ccccc1O.[Ni+2]`, the TGI was found to be 1.98 µM in assay [10]; 0.825 µM in [7]; 6.94 µM in [2]; 1.11 µM in [3]; 2.33 µM in [5]; 1.84 µM in assay [6]. The same compound came in with a TGI in [9] of 3.67 µM.

For `COC(=O)C1=C(C(=O)OC)SC2(S1)C(C(=O)OC)=C(C(=O)OC)Sc1c2ssc1=NC(C)(C)C`, the TGI in [10] is 5.09 µM; in [7], 3.32 µM; in assay [1], 3.44 µM; in assay [2], 4.72 µM; in assay [3], 27.7 µM; in assay [4], 2.17 µM. Moreover, the values for the TGI in [5], in [6] and in assay [9] were 8.69 µM, 3.54 µM and 9.77 µM, respectively.

Turning to `COC1OC2=CCC3C(=O)NC(=O)C3C2[C@H](OCc2ccccc2)C1OCc1ccccc1` (stereo not given in full), the TGI in assay [10] stood at 3.26 µM; in [7] it was 5.32 µM; in assay [3], 32.7 µM; in assay [5], 40.1 µM; in [6], 33.3 µM.
